Values quoted from earlier work in patent US20070105756A1 (priority 2005, published 2007).

Test system: sensitive individuals
Settings: oral route

NCCc1c[nH]cn1 [histamine]
histamine concentration known to be biologically active: > 5 nM
